No end group written: not given here.
Assays:
[1] = biological target: T1, human nociceptin receptor (ORL-1) (Homo sapiens, UniProt P41146); assay: Nociceptin receptor binding assay: binding of 125I-Tyr14-nociceptin to ORL-1 on HEK-293 cell membranes; conditions: for Ki: competition with 0.5 nM 125I-Tyr14-nociceptin, HEK-293 cell membranes, 3 experiments in duplicate; for Ki(x)/Ki(WT): ratio of variant Ki to nociceptin Ki
T1 construct: expressed in transfected cells
Method: Binding of peptides to the ORL-1 Receptor. […] ORL-1 membranes were diluted in binding buffer such that 25 μL containing 1 microgram (μg) of membrane was added to each well of a standard 96-well microtiter in binding buffer. […] Plates were incubated for two hours at room temperature and the reactions were filtered over GF/C Filterplates (Perkin Elmer-NEN), prewetted in 0.03% polyethleneimine, in a Filtermate 196 apparatus (Packard). Plates were washed six times with binding buffer in the filtration apparatus, then dried under vacuum for 1-2 hours. Twenty five microliters (25 μL) Microscint 20 (Packard) per well was added to solubilize bound radioactivity. The plates were then sealed and counted on a Packard Top Count to determine radioactivity bound to the membranes. Curves were fitted and IC50 values determined using Graphpad Prizm software (v3.0).

[2] = biological target: T2, ORL1 (Homo sapiens, UniProt P41146); assay: Calcium flux (FLIPR) in carbachol-sensitized HEK-293 cells expressing ORL-1 receptor; assay type: cell-based; design: expressed in transfected cells; host or cells: HEK-293 cells expressing ORL-1 receptor; conditions: for EC50: HEK-293 cells expressing ORL-1, pretreated with 100 μM carbachol, read-out: EC50 (calcium release); for EC50(x)/EC50(WT): ratio of variant EC50 to nociceptin EC50
Method: HEK-293 cells expressing ORL-1 receptor were plated at a density of 50,000 cells/well in a total volume of 50 ↑L onto 96-well plates. Two days later cells were prepared for assay using the FLIPR Calcium Assay Kit (Molecular Devices) according to manufacturer's directions, with the exception that the volume of dye mix added to each well was 50 μL instead of 100 μL. Cells were then treated with 100 μM carbachol in 100 μL. […] Data points were collected at one per second for 120 seconds, then one every three seconds for 30 seconds for a total collection time of 150 seconds after both the first and second additions.
This produced a “percent of carbachol response” for each dose. The experiment was repeated 6 times and the high and low values for each concentration were dropped. The data were used to generate EC50 curves using GraphPad Prizm v.3.0 software.
Target sequence in this assay (P41146 whole entry): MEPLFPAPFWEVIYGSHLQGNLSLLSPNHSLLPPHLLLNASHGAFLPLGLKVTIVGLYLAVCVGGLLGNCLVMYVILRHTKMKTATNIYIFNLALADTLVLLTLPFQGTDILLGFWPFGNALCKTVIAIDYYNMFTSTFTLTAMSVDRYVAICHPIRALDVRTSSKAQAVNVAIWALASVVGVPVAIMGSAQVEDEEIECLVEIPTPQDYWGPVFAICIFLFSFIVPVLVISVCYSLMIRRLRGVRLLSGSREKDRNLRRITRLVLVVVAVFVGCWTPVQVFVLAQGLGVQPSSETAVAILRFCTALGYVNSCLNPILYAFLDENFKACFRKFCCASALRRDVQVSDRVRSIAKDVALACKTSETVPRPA

[3] = biological target: T2, ORL1; conditions: cited from earlier work
Target sequence in this assay (P41146 whole entry, species assumed): as the sequence (P41146 whole entry) above

T1 sequence (P41146 whole entry): as above

| Compound | Ki [1] | Ki(x)/Ki(WT) [1] | EC50 [2] | EC50(x)/EC50(WT) [2] | fold lower affinity for ORL1 than nociceptin [3] |
| --- | --- | --- | --- | --- | --- |
| CCCC[C@H](NC(=O)[C@H](CO)NC(=O)[C@H](CCCCN)NC(=O)[C@H](CCCNC(=N)N)NC(=O)[C@H](C)NC(=O)CNC(=O)[C@@H](NC(=O)[C@H](Cc1ccccc1)NC(=O)CNC(=O)CNC(=O)[C@@H](N)Cc1ccccc1)[C@@H](C)O)C(=O)N[C@@H](CCCNC(=N)N)C(=O)N[C@@H](CCCCN)C(=O)N[C@@H](CC(C)C)C(=O)N[C@@H](C)C(=O)N[C@@H](CC(N)=O)C(=O)N[C@@H](CCC(N)=O)C(=O)O [Peptide A11nleu] | 1.9 nM | 2.6 | 4.2 nM | 1.8 | – |
| FGGFAGARKSARKLANQ [Peptide T5A] | 6.4 nM | 8.9 | 159 nM | 66 | – |
| FGGFTGARKSARKLAAQ [Peptide N16A] | 0.3 nM | 0.4 | 1.7 nM | 0.7 | – |
| FAGFTGARKSARKLANQ [Peptide G2A] | 191 nM | 265 | 1390 nM | 581 | – |
| FGGFLGARKSARKLANQ [Peptide T5L] | 2.2 nM | 3.1 | 14 nM | 5.7 | – |
| CCCC[C@H](NC(=O)CNC(=O)[C@@H](NC(=O)[C@H](Cc1ccccc1)NC(=O)CNC(=O)CNC(=O)[C@@H](N)Cc1ccccc1)[C@@H](C)O)C(=O)N[C@@H](CCCNC(=N)N)C(=O)N[C@@H](CCCCN)C(=O)N[C@@H](CO)C(=O)N[C@@H](C)C(=O)N[C@@H](CCCNC(=N)N)C(=O)N[C@@H](CCCCN)C(=O)N[C@@H](CC(C)C)C(=O)N[C@@H](C)C(=O)N[C@@H](CC(N)=O)C(=O)N[C@@H](CCC(N)=O)C(=O)O [Peptide A7nleu] | 0.5 nM | 0.7 | 29 nM | 12 | – |
| FGGFTGARKSARKLGNQ [Peptide A15G] | 0.2 nM | 0.3 | 1.9 nM | 0.8 | – |
| FGGFTGARKSAKKLANQ [Peptide R12K] | 0.8 nM | 1.1 | 2.4 nM | 1.0 | – |
| FGGFTGGRKSARKLANQ [Peptide A7G] | 7.7 nM | 11 | 18 nM | 7.4 | – |
| FGGFTGSRKSARKLANQ [Peptide A7S] | 1.5 nM | 2.1 | 5.6 nM | 2.3 | – |
| FGGFTGARKSGRKLANQ [Peptide A11G] | 3.2 nM | 4.4 | 11 nM | 4.8 | – |
| FGGFTGARKSAAKLANQ [Peptide R12A] | 2.8 nM | 3.9 | 1.3 nM | 0.5 | – |
| FGGFTGLRKSARKLANQ [Peptide A7L] | 0.8 nM | 1.1 | 13 nM | 5.2 | – |
| FGGFTGARKSSRKLANQ [Peptide A11S] | 1.2 nM | 1.7 | 1.2 nM | 0.5 | – |
| FGGFTGARKSARKLANA [Peptide Q17A] | 0.8 nM | 1.1 | 12 nM | 4.8 | – |
| FGGFTGARKAARKLANQ [Peptide S10A] | 0.8 nM | 1.2 | 42 nM | 18 | – |
| FGGFSGARKSARKLANQ [Peptide T5S] | 1.4 nM | 2.0 | 27 nM | 11 | – |
| FGAFTGARKSARKLANQ [Peptide G3A] | 1.6 nM | 2.2 | 13 nM | 5.5 | – |
| Y G G F L R R I R P K L K W D N Q [Dynorphin A] | – | – | – | – | 100 fold |
| FGGFTGAKKSARKLANQ [Peptide R8K] | 32 nM | 45 | 64 nM | 27 | – |
| FGGFTGARKSARALANQ [Peptide K13A] | 1.5 nM | 2.1 | 1.1 nM | 0.5 | – |
| AGGFTGARKSARKLANQ [Peptide F1A] | 91 nM | 127 | 1440 nM | 601 | – |
| FGGFTGAAKSARKLANQ [Peptide R8A] | 50 nM | 69 | 69 nM | 29 | – |
| FGGATGARKSARKLANQ [Peptide F4A] | 188 nM | 262 | 3880 nM | 1617 | – |
| FGGFTGARKSARKAANQ [Peptide L14A] | 0.2 nM | 0.3 | 7 nM | 2.9 | – |
| FGGFTGAKKSAKKLANQ [R8K/R12K] | 3.9 nM | 5.4 | 53.5 nM | 22 | – |
| FGGFTGARKSLRKLANQ [Peptide A11L] | 0.9 nM | 1.2 | 8.3 nM | 3.5 | – |
| FGGFTAARKSARKLANQ [Peptide G6A] | 1.5 nM | 2.1 | 39 nM | 16 | – |
| FGGFTGARASARKLANQ [Peptide K9A] | 1.5 nM | 2.1 | 2.8 nM | 1.2 | – |

Source: US20050266575A1 (priority 2004, published 2005)
